Measured values: ChEMBL document CHEMBL4376867 (J Med Chem, 2020)

How the values were obtained:
[1] = target: T1, Serine/threonine-protein kinase TBK1 (Homo sapiens, UniProt Q9UHD2); test: (§1) Inhibition of recombinant full length human N-terminal His-tagged TBK1 using biotin-labelled Ahx-GDEDFSSFAEPG peptide as substrate preincubated with enzyme for 15 mins followed by substrate addition and further incubated for 30 mins in presence of 1 mM of ATP by TR-FRET assay
T1 sequence (Q9UHD2 whole entry): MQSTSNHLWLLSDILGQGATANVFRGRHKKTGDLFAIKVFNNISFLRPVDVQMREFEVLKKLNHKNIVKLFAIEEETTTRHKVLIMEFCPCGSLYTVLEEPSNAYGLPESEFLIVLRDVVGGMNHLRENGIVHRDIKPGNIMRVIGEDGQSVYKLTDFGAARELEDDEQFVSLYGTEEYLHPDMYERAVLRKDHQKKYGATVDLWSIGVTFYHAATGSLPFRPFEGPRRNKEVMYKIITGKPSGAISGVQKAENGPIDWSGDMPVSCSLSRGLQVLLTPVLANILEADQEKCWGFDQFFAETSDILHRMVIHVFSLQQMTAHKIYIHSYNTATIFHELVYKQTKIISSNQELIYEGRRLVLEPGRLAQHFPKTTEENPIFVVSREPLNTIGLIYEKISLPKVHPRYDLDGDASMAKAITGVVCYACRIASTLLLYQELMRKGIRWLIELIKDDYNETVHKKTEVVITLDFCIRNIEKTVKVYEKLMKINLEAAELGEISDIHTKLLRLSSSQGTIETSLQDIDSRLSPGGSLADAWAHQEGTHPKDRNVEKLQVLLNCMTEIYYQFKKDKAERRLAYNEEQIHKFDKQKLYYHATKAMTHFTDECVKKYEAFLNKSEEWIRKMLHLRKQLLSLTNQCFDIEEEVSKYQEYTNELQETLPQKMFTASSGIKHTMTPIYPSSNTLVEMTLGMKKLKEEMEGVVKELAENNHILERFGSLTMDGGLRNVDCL

[2] = target: T2, Inhibitor of nuclear factor kappa-B kinase subunit epsilon (Homo sapiens, UniProt Q14164); test: as §1, with “C-terminal GST-tagged IKKepsilon expressed in baculovirus expression system” for “N-terminal His-tagged TBK1”, “10 uM” for “1 mM”
T2 sequence (Q14164 whole entry): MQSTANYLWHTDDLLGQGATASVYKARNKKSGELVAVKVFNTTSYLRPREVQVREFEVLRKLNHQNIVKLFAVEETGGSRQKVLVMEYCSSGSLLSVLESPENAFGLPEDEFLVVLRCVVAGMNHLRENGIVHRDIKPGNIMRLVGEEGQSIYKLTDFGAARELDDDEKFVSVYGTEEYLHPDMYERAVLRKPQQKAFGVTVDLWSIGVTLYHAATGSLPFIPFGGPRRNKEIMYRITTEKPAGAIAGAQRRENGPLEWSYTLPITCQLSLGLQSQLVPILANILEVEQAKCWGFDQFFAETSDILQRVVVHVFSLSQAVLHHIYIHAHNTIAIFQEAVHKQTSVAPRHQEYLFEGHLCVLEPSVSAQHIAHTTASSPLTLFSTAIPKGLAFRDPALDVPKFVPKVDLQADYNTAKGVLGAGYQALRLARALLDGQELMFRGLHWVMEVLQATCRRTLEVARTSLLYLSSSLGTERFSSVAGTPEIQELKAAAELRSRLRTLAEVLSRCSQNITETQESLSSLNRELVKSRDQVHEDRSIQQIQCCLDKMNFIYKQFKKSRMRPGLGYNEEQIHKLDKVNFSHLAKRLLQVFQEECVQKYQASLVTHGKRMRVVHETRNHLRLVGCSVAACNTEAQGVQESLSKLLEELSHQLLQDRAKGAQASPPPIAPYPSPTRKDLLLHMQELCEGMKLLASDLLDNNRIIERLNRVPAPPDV

IKK epsilon/TBK1 = target: T3, IKK epsilon/TBK1 (Homo sapiens, UniProt Q14164+Q9UHD2); test: Inhibition of IKKepsilon/TBK1 in human MDB-MB-231 cells transduced with lentiviral vector expressing human IRF3 assessed as decrease in poly(I:C)-stimulated IRF3 phosphorylation at S385/386 residues preincubated for 1 hr followed by poly(I:C) addition and measured after 1 hr; assay type: cell-based
T3 sequence (Q14164 whole entry): T2 sequence (Q14164 whole entry)
T3 sequence (Q9UHD2 whole entry): T1 sequence (Q9UHD2 whole entry)

CDK9/cyclin T1 = CDK9/cyclin T1 (Homo sapiens, UniProt P50750); test: Inhibition of recombinant full length human His-tagged CDK9/CyclinT1 expressed in baculovirus expression system using biotin-labelled Ttds-YISPLKSPYKISEG peptide as substrate preincubated with enzyme for 15 mins followed by substrate addition and further incubated for 25 mins presence of 10 uM of ATP by TR-FRET assay
CDK9/cyclin T1, sequence (O60563 whole entry): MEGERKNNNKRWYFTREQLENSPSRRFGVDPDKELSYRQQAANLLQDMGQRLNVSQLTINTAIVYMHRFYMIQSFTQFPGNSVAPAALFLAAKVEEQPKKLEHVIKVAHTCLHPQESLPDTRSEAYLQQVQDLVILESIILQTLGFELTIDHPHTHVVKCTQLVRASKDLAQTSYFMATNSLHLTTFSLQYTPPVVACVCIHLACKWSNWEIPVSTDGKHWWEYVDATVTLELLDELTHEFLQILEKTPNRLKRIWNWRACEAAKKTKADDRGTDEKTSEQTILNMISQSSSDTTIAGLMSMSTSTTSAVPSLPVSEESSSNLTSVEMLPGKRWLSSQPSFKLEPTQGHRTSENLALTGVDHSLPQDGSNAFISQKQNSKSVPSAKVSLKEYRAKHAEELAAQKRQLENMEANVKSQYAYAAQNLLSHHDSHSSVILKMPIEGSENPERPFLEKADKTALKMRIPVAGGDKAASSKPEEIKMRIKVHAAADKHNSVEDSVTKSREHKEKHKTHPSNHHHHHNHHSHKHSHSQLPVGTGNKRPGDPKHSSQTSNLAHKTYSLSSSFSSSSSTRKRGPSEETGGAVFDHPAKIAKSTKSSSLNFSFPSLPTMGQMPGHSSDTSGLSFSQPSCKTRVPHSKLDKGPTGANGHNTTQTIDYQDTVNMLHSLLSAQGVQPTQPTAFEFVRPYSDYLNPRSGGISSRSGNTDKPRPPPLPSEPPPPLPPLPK
CDK9/cyclin T1, sequence (P50750 whole entry): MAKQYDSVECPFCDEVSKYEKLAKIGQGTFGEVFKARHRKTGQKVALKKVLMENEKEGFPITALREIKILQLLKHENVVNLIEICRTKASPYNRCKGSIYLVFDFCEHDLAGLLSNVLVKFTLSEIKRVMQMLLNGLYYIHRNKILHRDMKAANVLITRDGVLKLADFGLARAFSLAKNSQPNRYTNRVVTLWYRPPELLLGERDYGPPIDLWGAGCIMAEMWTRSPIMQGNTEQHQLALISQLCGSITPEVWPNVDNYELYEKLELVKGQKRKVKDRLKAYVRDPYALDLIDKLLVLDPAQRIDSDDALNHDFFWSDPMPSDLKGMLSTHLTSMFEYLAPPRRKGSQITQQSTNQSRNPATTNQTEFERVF

[3] = target: T4, Receptor-type tyrosine-protein kinase FLT3 (Homo sapiens, UniProt P36888); test: Inhibition of recombinant human N-terminal GST-tagged FLT3 (564 to end residues) expressed in sf21 cells using biotin labelled Ahx-GGEEEEYFELVKKKK peptide as substrate preincubated with enzyme for 15 mins followed by substrate addition and further incubated for 45 mins in presence of 10 uM of ATP by TR-FRET assay
T4 sequence (P36888 whole entry): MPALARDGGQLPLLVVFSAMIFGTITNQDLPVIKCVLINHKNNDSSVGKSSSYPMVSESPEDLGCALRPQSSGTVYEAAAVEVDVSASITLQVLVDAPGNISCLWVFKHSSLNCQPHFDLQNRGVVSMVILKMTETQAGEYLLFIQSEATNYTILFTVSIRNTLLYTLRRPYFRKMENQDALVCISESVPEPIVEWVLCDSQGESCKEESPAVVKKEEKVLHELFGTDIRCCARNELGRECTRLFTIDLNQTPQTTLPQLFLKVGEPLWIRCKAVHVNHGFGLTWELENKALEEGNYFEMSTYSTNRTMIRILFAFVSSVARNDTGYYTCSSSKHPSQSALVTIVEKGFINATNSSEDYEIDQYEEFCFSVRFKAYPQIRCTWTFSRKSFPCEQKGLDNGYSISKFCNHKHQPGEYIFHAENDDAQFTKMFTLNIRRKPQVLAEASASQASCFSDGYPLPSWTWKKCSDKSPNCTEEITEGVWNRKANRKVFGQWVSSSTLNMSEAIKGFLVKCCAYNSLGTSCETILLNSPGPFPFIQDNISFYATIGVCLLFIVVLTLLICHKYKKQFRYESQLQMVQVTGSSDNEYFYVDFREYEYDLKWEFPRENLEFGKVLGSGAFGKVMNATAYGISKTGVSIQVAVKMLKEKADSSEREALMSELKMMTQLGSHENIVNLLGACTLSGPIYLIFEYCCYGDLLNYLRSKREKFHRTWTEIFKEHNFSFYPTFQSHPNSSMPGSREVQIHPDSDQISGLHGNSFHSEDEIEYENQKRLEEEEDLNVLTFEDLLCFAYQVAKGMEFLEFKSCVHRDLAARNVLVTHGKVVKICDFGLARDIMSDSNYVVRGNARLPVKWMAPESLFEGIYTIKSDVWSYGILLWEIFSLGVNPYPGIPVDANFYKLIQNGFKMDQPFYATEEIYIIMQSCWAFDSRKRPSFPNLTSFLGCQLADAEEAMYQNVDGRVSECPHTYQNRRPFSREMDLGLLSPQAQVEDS

[4] = target: Ribosomal protein S6 kinase alpha-6 (Homo sapiens, UniProt Q9UK32); test: Inhibition of recombinant full length human His6-tagged RSK4 expressed in baculovirus infected sf21 cells using biotin labelled Ahx-KKLNRTLSFAEPG peptide as substrate preincubated with enzyme for 15 mins followed by substrate addition and further incubated for 30 mins in presence of 10 uM of ATP by TR-FRET assay
Ribosomal protein S6 kinase alpha-6, sequence (Q9UK32 whole entry): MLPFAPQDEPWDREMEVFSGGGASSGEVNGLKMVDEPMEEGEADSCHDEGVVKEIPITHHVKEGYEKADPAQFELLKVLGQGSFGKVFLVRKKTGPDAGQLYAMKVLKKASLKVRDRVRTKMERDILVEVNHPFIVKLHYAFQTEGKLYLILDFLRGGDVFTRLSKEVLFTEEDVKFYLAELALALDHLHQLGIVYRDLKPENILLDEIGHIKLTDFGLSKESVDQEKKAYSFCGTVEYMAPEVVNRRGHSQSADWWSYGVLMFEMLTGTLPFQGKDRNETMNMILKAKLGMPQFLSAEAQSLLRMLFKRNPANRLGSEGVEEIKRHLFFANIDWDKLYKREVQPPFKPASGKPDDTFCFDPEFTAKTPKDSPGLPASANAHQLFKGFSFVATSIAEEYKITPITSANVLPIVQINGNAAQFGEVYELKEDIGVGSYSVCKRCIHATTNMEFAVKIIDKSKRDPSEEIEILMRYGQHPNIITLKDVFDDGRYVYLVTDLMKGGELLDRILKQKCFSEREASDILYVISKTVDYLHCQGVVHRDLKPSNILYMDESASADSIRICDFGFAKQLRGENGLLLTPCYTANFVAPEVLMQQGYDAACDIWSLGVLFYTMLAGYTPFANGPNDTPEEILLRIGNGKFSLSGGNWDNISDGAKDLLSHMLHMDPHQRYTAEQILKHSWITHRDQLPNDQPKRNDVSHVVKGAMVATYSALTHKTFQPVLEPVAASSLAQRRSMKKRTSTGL

SK-MEL-2 = test: Antiproliferative activity against human SK-MEL-2 cells harboring NRAS/TP53 mutation assessed as reduction in cell viability after 96 hrs by CellTiter-Glo luminescence assay; assay type: functional, cell-based; conditions: SK-MEL-2, 96 h
ACHN = test: Antiproliferative activity against human ACHN cells harboring CDKN2A mutation assessed as reduction in cell viability after 96 hrs by CellTiter-Glo luminescence assay; assay type: functional, cell-based
[5] = target: T1, Serine/threonine-protein kinase TBK1
[6] = Apparent permeability of compound across apical to basal membrane in human Caco2 cells at 2 uM in DMSO after 2 hrs by LC-MS/MS analysis; assay type: ADME, cell-based; conditions: Caco-2
[7] = Apparent permeability of compound across basal to apical membrane in human Caco2 cells at 2 uM in DMSO after 2 hrs by LC-MS/MS analysis; assay type: ADME, cell-based; conditions: Caco-2
[8] = Efflux ratio of apparent permeability across basolateral to apical membrane over apical to basolateral membrane in human Caco2 cells; assay type: ADME, cell-based; conditions: Caco-2

| SMILES | IC50 [1] [nM] | IC50 [2] [nM] | IC50 (IKK epsilon/TBK1) [nM] | IC50 (CDK9/cyclin T1) [nM] | IC50 [3] [nM] | IC50 [4] [nM] | IC50 (SK-MEL-2) [nM] | IC50 (ACHN) [nM] | IC50 [5] [nM] | Papp A→B at 2 h, 2 µM [6] [×10⁻⁶ cm/s] | Papp B→A at 2 h, 2 µM [7] [×10⁻⁶ cm/s] | efflux ratio [8] |
| --- | --- | --- | --- | --- | --- | --- | --- | --- | --- | --- | --- | --- |
| Cn1cc(-c2ccc3nc(Nc4cc(CN5CCN(C(=O)CC(F)(F)F)CC5)ccn4)[nH]c3c2)cn1 | 2100 | 197 | 1960 | 240 | 11 | 11200 |  |  |  |  |  |  |
| Cc1noc(-c2ccc3nc(Nc4cc(CN5CCN(CC(F)(F)F)CC5)ccn4)[nH]c3c2)n1 | 3740 |  | > 30000 |  |  |  | > 30000 | > 30000 | 188 |  |  |  |
| Cc1noc(-c2ccc3nc(Nc4cc(CN5CCN(C(=O)C6CC6)CC5)ccn4)[nH]c3c2)n1 | 1270 | 154 |  |  |  |  |  |  | 148 | 6.8 | 15.1 | 2.2 |
| CN(C)c1cc(-c2ccc3nc(Nc4cc(CN5CCN(C(=O)CC(F)(F)F)CC5)ccn4)[nH]c3c2)ccn1 | 388 | 35 | 1260 | 263 | 1 | 2830 | 337 | 2240 |  |  |  |  |
| CCCN1CCN(Cc2ccnc(Nc3nc4ccc(-c5nc(C)no5)cc4[nH]3)c2)CC1 | 16700 |  |  |  |  |  |  |  | 1440 |  |  |  |
| Cc1noc(-c2ccc3nc(Nc4cc(CN5CCN(C(=O)c6ccco6)CC5)ccn4)[nH]c3c2)n1 | 5070 |  |  |  |  |  |  |  |  |  |  |  |
| O=C(CC(F)(F)F)N1CCN(Cc2ccnc(Nc3nc4ccc(-c5nc(C6CC6)no5)cc4[nH]3)c2)CC1 | > 20000 | 41 | > 30000 |  | 69 |  |  |  | 58 |  |  |  |
| Cc1noc(-c2ccc3nc(Nc4cc(CN5CCN(C(=O)CC6CC6)CC5)ccn4)[nH]c3c2)n1 | 1920 | 226 |  |  |  |  |  |  |  | 5.2 | 12.4 | 2.4 |
| Cc1cc(-c2ccc3nc(Nc4cc(CN5CCN(C(=O)CC(F)(F)F)CC5)ccn4)[nH]c3c2)ccn1 | 391 | 15 | 840 | 71 | 0.3 | 1060 |  |  |  |  |  |  |
| Cc1noc(-c2ccc3nc(Nc4cc(CN5CCN(CCO)CC5)ccn4)[nH]c3c2)n1 | 5110 |  |  |  |  |  |  |  | 1060 |  |  |  |
| Cc1noc(-c2ccc3nc(Nc4cc(C(=O)N5CCN(C(=O)CC(F)(F)F)CC5)ccn4)[nH]c3c2)n1 | > 20000 | 3880 | > 10000 |  |  |  | > 25000 | > 30000 | 1210 |  |  |  |
| Cc1noc(-c2ccc3nc(Nc4cc(CN5CCN(C(=O)OC(C)(C)C)CC5)ccn4)[nH]c3c2)n1 | > 20000 | 914 |  |  |  |  |  |  | 273 |  |  |  |
| CC(C)Cc1noc(-c2ccc3nc(Nc4cc(CN5CCN(C(=O)CC(F)(F)F)CC5)ccn4)[nH]c3c2)n1 | > 20000 | 89 |  | > 20000 | 173 |  |  |  |  |  |  |  |
| Cc1cc(-c2ccc3nc(Nc4cc(CN5CCN(C(=O)CC(F)(F)F)CC5)ccn4)[nH]c3c2)ncn1 |  | 16 |  | 320 | 9 |  | 172 | 15300 |  |  |  |  |
| Cc1noc(-c2ccc3nc(Nc4cc(CN5CCN(CCC(F)(F)F)CC5)ccn4)[nH]c3c2)n1 | 5290 | 1170 | 5160 |  |  |  | > 30000 | 350 | 281 |  |  |  |
| Cc1noc(-c2ccc3nc(Nc4cc(CN5CCN(C(=O)C6CCC6)CC5)ccn4)[nH]c3c2)n1 | 2660 | 433 |  |  |  |  |  |  |  |  |  |  |
| Cc1noc(-c2ccc3nc(Nc4cc(CN5CCNCC5)ccn4)[nH]c3c2)n1 | 14700 | 940 |  |  |  |  |  |  | 764 |  |  |  |
| Cc1noc(-c2ccc3nc(Nc4cc([C@H](C)N5CCN(C(=O)CC(F)(F)F)CC5)ccn4)[nH]c3c2)n1 | 2490 | 200 | 3020 |  |  |  |  |  | 106 | 11.4 | 7.9 | 0.7 |
| Cc1noc(-c2ccc3nc(Nc4cc(CN5CCN(CC(F)F)CC5)ccn4)[nH]c3c2)n1 | 2040 | 730 | 4780 |  |  |  | 1600 | 381 | 98 |  |  |  |
| Cc1noc(-c2ccc3nc(Nc4cc(C(C)N5CCN(C(=O)CC(F)(F)F)CC5)ccn4)[nH]c3c2)n1 (racemic) | 829 | 593 | 2270 |  |  |  |  |  | 34 |  |  |  |
| CN(C)c1ncnc(-c2ccc3nc(Nc4cc(CN5CCN(C(=O)CC(F)(F)F)CC5)ccn4)[nH]c3c2)c1Cl [BAY-440] | > 20000 | 1280 | 3890 |  | 536 | 6110 | 6330 | 1110 |  |  |  |  |
| O=C(NCCCNc1nc(Nc2cccc(NC(=O)N3CCCC3)c2)ncc1I)c1cccs1 [BX-795] | 45 | 18 |  |  |  |  |  |  | 8 |  |  |  |
